Experimental data as given in article PMC9226319, “Peripherally restricted transthyretin-based delivery system for probes and therapeutics avoiding opioid-related side effects” (Nature Communications, 2022).
“And” between values parts separate entries of the source, which are not always exact repeats. Identical values can stand only once. Like-named read-outs stand apart in the source and are kept apart here.

What was measured:
[1] = rat; for plasma concentration: IV 4.84 µmol/kg, individual animals
male Sprague-Dawley rats [2] = details: rat, in vivo, sc
in vivo [3] = details: male, Sprague Dawley, rat, sc
TTR in human serum = TTR in human serum (Homo sapiens, UniProt P02766); test: TTR serum fluorescent probe exclusion (FPE) selectivity assay; assay type: binding; details: ligand 10 µM; for %FPE probe fluorescence: human serum, replicates
in vivo [4] = details: male, Sprague Dawley, rat, iv
[5] = molecular target: T1, kappa opioid receptor (rat) (Rattus norvegicus, UniProt P34975); details: read-out: binding affinity to kappa-opioid receptor (Ki); cited from earlier work
T1 construct: Eurofins Cerep (France)

in vivo [6] = details: male, Sprague Dawley, rat, iv; remark: listed apart in the source
[7] = rat; for plasma concentration: SC 16 µmol/kg, individual animals
male Sprague-Dawley rats [8] = test: Gastrointestinal (GI) transit (charcoal meal) assays; assay type: in vivo, rat
in vitro = details: human, % Cell viability, replicates

T1 sequence (P34975 whole entry): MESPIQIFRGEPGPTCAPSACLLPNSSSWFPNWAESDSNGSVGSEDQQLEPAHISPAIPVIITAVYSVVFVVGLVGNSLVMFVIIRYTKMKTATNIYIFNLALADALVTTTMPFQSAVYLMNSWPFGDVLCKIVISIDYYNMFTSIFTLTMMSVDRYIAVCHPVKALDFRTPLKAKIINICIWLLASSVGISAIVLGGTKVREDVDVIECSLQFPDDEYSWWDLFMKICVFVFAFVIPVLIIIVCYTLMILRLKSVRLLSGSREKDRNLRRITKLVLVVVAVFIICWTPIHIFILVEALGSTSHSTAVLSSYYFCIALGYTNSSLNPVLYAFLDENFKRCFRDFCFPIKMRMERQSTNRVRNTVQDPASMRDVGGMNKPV

## C=CCN1CC[C@]23c4c5ccc(O)c4O[C@H]2[C@@H](OCCOCCOCCOCCOCCOCCOCCOC)CC[C@@]3(O)[C@H]1C5 [Naloxegol, reference compound]
[1]; 0.03 h
  plasma concentration: 2193.9 nM and 2301.3 nM
[1]; 0.5 h
  plasma concentration: 144.7 nM and 149.7 nM
[1]; 1 h
  plasma concentration: 58 nM and 27.2 nM and 41.1 nM
[1]; 2 h
  plasma concentration: 16.1 nM and 15.5 nM
[1]; 4 h
  plasma concentration: 4.6 nM and 6.8 nM
[1]; 6 h
  plasma concentration: 1.8 nM and 4 nM and 5.8 nM
[1]; 8 h
  plasma concentration: 2.3 nM and 1.4 nM
[1]; single IV bolus 4.84 µmol/kg
  k: 0.41 ± 0.06 h⁻¹
Male Sprague-Dawley rats [2]
  hot plate latency: 17.6 ± 4.0 s
In vivo [3]; 16 umol/kg
  AUC(0-inf): 3.68 ± 0.566 µM·h
  CL/F: 72.8 mL/min/kg
  Vd/F: 5.58 ± 0.96 L/kg
  half-life: 0.88 ± 0.02 h
In vivo [3]; 16 µmol/kg, plasma concentration, SC 16 µmol/kg, 0.25 h, individual animals
  concentration at 0.25 h: 1930 nM
In vivo [3]; 16 µmol/kg, plasma concentration, SC 16 µmol/kg, 0.5 h, individual animals
  concentration at 0.5 h: 2470 nM
In vivo [3]; 16 µmol/kg, plasma concentration, SC 16 µmol/kg, 0.75 h, individual animals
  concentration at 0.75 h: 2870 nM
In vivo [3]; 16 µmol/kg, plasma concentration, SC 16 µmol/kg, 1 h, individual animals
  concentration at 1 h: 1970 nM
In vivo [3]; 16 µmol/kg, plasma concentration, SC 16 µmol/kg, 2 h, individual animals
  concentration at 2 h: 548 nM
TTR in human serum; FPE probe 3.6 µM, 3 h reading relative to probe alone, text mean ± s.d., table replicates
  % TTR occupancy in human serum: 14.09% and 13.76% and 18.08% and 17.39%
TTR in human serum; time 0.000 h
  %FPE probe fluorescence: 0.000%
TTR in human serum; time 0.083 h
  %FPE probe fluorescence: -1.162% and 0.076% and 1.061% and 2.494%
TTR in human serum; time 0.250 h
  %FPE probe fluorescence: 12.642% and 13.881% and 14.653% and 16.580%
TTR in human serum; time 0.500 h
  %FPE probe fluorescence: 29.770% and 29.601% and 35.277% and 32.978%
TTR in human serum; time 1.000 h
  %FPE probe fluorescence: 51.856% and 49.775% and 51.097% and 53.857%
TTR in human serum; time 1.250 h
  %FPE probe fluorescence: 58.967% and 56.462% and 55.901% and 61.434%
TTR in human serum; time 1.500 h
  %FPE probe fluorescence: 63.979% and 62.154% and 61.352% and 66.100%
TTR in human serum; time 1.750 h
  %FPE probe fluorescence: 70.669% and 69.322% and 65.355% and 73.049%
TTR in human serum; time 2.000 h
  %FPE probe fluorescence: 72.778% and 74.065% and 70.075% and 75.601%
TTR in human serum; time 2.250 h
  %FPE probe fluorescence: 79.286% and 77.129% and 72.043% and 79.051%
TTR in human serum; time 2.500 h
  %FPE probe fluorescence: 80.847% and 80.185% and 76.560% and 80.986%
TTR in human serum; time 2.750 h
  %FPE probe fluorescence: 84.987% and 82.916% and 77.033% and 84.908%
TTR in human serum; time 3.000 h
  %FPE probe fluorescence: 85.911% and 86.240% and 81.919% and 82.607%
TTR in human serum; time 3.500 h
  %FPE probe fluorescence: 89.826% and 88.173% and 84.101% and 88.948%
TTR in human serum; time 3.750 h
  %FPE probe fluorescence: 85.342% and 89.201% and 87.815% and 89.262%
TTR in human serum; time 4.000 h
  %FPE probe fluorescence: 92.972% and 91.077% and 85.636% and 94.755%
TTR in human serum; time 4.250 h
  %FPE probe fluorescence: 92.674% and 90.338% and 87.389% and 92.827%
TTR in human serum; time 4.500 h
  %FPE probe fluorescence: 93.747% and 95.743% and 86.912% and 94.592%
TTR in human serum; time 4.750 h
  %FPE probe fluorescence: 93.049% and 92.357% and 88.468% and 95.740%
TTR in human serum; time 5.000 h
  %FPE probe fluorescence: 94.380% and 93.149% and 88.822% and 94.667%
TTR in human serum; time 5.250 h
  %FPE probe fluorescence: 94.178% and 93.087% and 90.315% and 94.928%
TTR in human serum; time 5.500 h
  %FPE probe fluorescence: 92.258% and 94.965% and 88.366% and 97.216%
TTR in human serum; time 5.750 h
  %FPE probe fluorescence: 93.772% and 93.937% and 90.079% and 96.029%
TTR in human serum; time 6.000 h
  %FPE probe fluorescence: 96.902% and 93.100% and 91.727% and 96.188%
In vivo [4]; percentage CSF to plasma ratio
  Kp: 0.15
In vivo [4]; percentage brain to plasma ratio
  Kp: 0.29
[5]
  Ki: 8.7 nM
In vivo [6]; 4.84 umol/kg
  AUC(0-inf): 0.741 ± 0.0336 µM·h
  Vd: 2.76 ± 0.39 L/kg
  clearance: 109 mL/min/kg
  half-life: 1.72 ± 0.27 h
In vivo [6]; 4.84 µmol/kg, plasma concentration, IV 4.84 µmol/kg, 0.03 h, individual animals
  concentration at 0.03 h: 1900 nM
In vivo [6]; 4.84 µmol/kg, plasma concentration, IV 4.84 µmol/kg, 0.5 h, individual animals
  concentration at 0.5 h: 206 nM
In vivo [6]; 4.84 µmol/kg, plasma concentration, IV 4.84 µmol/kg, 2 h, individual animals
  concentration at 2 h: 17.8 nM
In vivo [6]; 4.84 µmol/kg, plasma concentration, IV 4.84 µmol/kg, 4 h, individual animals
  concentration at 4 h: 9.2 nM
In vivo [6]; 4.84 µmol/kg, plasma concentration, IV 4.84 µmol/kg, 8 h, individual animals
  concentration at 8 h: 2.5 nM
[7]; 0.03 h
  plasma concentration: 247 nM and 451 nM and 135 nM
[7]; 0.25 h
  plasma concentration: 1100 nM and 1090 nM
[7]; 0.5 h
  plasma concentration: 1750 nM and 2300 nM
[7]; 0.75 h
  plasma concentration: 1870 nM and 2090 nM
[7]; 1 h
  plasma concentration: 1410 nM and 2160 nM
[7]; 2 h
  plasma concentration: 517 nM and 744 nM
[7]; 4 h
  plasma concentration: 95.6 nM and 149 nM and 239 nM
[7]; 6 h
  plasma concentration: 19 nM and 31.8 nM and 56.3 nM
[7]; 8 h
  plasma concentration: 3.9 nM and 6.7 nM and 10.6 nM
[7]; single SC dose 16 µmol/kg
  k: 0.79 ± 0.02 h⁻¹
Male Sprague-Dawley rats [8]; 3.5 μmol/kg, 2.5h, individual animals (Fig.9b)
  GI transit 2.5h as % of saline group: 41.7% and 40.4% and 35.2% and 39.7% and 39.3% and 42.0%
Male Sprague-Dawley rats [8]; rat, in vivo, sc
  GI transit as % of saline group: 39.7 ± 2.5%
In vitro; 10 μM
  viability at 72 h, 10 µM: 103%
In vitro; 100 μM
  viability at 72 h, 100 µM: 99%
